Common to all, as to format: biochemical, Campylobacter jejuni 11168
The test system of experiment [1] is His6PtmE (Cj1329, nucleotidyltransferase). Kind of experiment: His6PtmE substrate specificity (sugar-1-P acceptors and NTP donors). The conditions noted are these: for PtmE activity with sugar-1-P acceptor: 10 mM sugar-1-P, 0.2 mM NTP, 30 min at 37° C.; for PtmE NTP donor specificity with this sugar acceptor: NTP = CTP, GTP or TTP. On the procedure: […] GDP-glucosamine biosynthesis. The ‘one-pot’ enzymatic synthesis of GDP-GlcN from Fru-6-P (I→IV) was accomplished using a 3 ml reaction containing His6PtmF, PtmAHis6, PgmLHis6, His6PtmE, 5 mM Fru-6-P (I), 10 mM L-Gln, 1 mM DTT, 5 mM MgCl2, 0.8 U ml^−1 pyrophosphatase, and 2.5 mM GTP in 25 mM Tris pH 7.5. Large-scale enzymatic synthesis of GDP-GlcN (IV) was accomplished using a 12 ml reaction containing 50 mM Tris pH 7.5, 1 mM GTP, 1 mM MgCl2, 0.8 U ml^−1 pyrophosphatase, 1.2 mM GlcN-1-P (III) and approximately 4.8 mg of His6PtmE. The large-scale enzymatic synthesis of GDP-GlcNAc was performed similar to that above, except the scale was increased five-fold and GlcNAc-1-P was used in place of GlcN-1-P (III). Assessment of His6PtmE substrate specificity was accomplished using 9 reactions, 80 μl each, containing 50 mM Tris pH 7.5, 2 mM MgCl2, 50 μg His6PtmE, and various combinations of 10 mM sugar-1-P (GalN-1-P, GlcN-1-P or GlcNAc-1-P) and 0.2 mM NTP (CTP, GTP, or TTP). Conversion of GDP-GlcN to GDP-GlcNAc. The His6GlmU reaction was performed using 1 mM GDP-GlcN (IV), 1.2 mM acetyl-CoA and His6GlmU in 25 mM sodium phosphate pH 7.8, 25 mM NaCl, 10 mM β-mercaptoethanol. In addition, a control reaction was performed containing 1 mM GlcN-1-P (III) instead of IV. Biosynthesis of legionaminic acid from GDP-GlcNAc. The stepwise enzymatic synthesis of intermediates or products was accomplished in 2 stages (V→VI→VII→VIII, and then VIII→IX→X) using 1 mM of V, 0.5 mM NAD, 0.8 mM PLP, 8 mM L-Glu, 1.2 mM acetyl-CoA, 1.2 mM PEP, LegBHis6, His6LegC, His6LegH, His6LegG, and His6LegI as appropriate, in 25 mM sodium phosphate pH 7.3, 25 mM NaCl. Assessment of His6LegG activity involved monitoring the reaction kinetics by ^1H NMR (see NMR spectroscopy) for 75 min using 0.75 mM GDP-2,4-diacetamido-2,4,6-trideoxy-α-D-Glc (VIII), 4 μg His6LegG in 200 μl of 25 mM sodium phosphate pH 7.3, 25 mM NaCl at 25° C. In addition, the substrate flexibility of His6LegG was assessed using a 300 μl reaction containing 40 μg His6LegG, 25 mM sodium phosphate pH 7.3, 25 mM NaCl, and 0.75 mM UDP-2,4-diacetamido-2,4,6-trideoxy-α-D-Glc, with incubation at 37° C. for 1.5 h, and then overnight at 25° C. Biosynthesis of CMP-legionaminic acid. The CMP-activation of legionaminic acid (X→XI) was performed using a 20 ml reaction containing approximately 0.2 mM of X, 50 mM MgCl2, 3 mM CTP, and 15 mg of LegFHis6 in 25 mM sodium phosphate pH 7.8, 25 mM NaCl, with incubation at 37° C. for 5 h, and then 25° C. for 72 h. Metabolite purification. Typically, reactions were passed through an Amicon Ultra-15 (10,000 molecular weight cut-off) or Ultra-4 (5,000 molecular weight cut-off) filter membrane before analysis. As required, NDP-sugar preparations (GDP-Glc, GDP-GlcN, GDP-GlcNAc, CDP-GlcNAc, TDP-GlcNAc, and CMP-Leg) were lyophilized and desalted/purified using a Superdex Peptide 10/300 GL (Amersham Biosciences) column in 25 mM ammonium bicarbonate, pH 7.9. For further purity, the NDP-sugar samples above were subjected to anion-exchange chromatography (Mono Q 4.6/100 PE, Amersham Biosciences) using ammonium bicarbonate pH 7.9. Quantification of NDP-sugar preparations was determined using the molar extinction coefficients of CMP (ε260=7,400), GDP (ε260=11,500), TDP (ε260=8,700), and UDP (ε260=10,000).
(§1) CE analysis was performed using either a P/ACE 5510 or P/ACE MDQ system (Beckman Instruments, Mississauga, Ont) with diode array detection. The capillaries were bare silica 50 μm×50 cm, with a detector at 50 cm, and the running buffer was 25 mM sodium tetraborate pH 9.4. Samples were introduced by pressure injection for 6 sec, and the separation was performed at 18 kV for 20 min. Peak integration was done using the Beckman P/ACE station software.

The subject of experiment [2] is LegB (Cj1319, 4,6-dehydratase). Kind of experiment: LegB C4,6 dehydratase reaction with NDP-sugars. The conditions noted are these: in the presence or absence of NAD(P)+. The method, then: (§2) Enzymatic reactions were performed for 4.5 h at 37° C., and then overnight at 25° C., with approximately 200 μg ml^−1 respective protein concentration using chemicals from Sigma (unless otherwise indicated). GDP-glucosamine biosynthesis. The ‘one-pot’ enzymatic synthesis of GDP-GlcN from Fru-6-P (I→IV) was accomplished using a 3 ml reaction containing His6PtmF, PtmAHis6, PgmLHis6, His6PtmE, 5 mM Fru-6-P (I), 10 mM L-Gln, 1 mM DTT, 5 mM MgCl2, 0.8 U ml^−1 pyrophosphatase, and 2.5 mM GTP in 25 mM Tris pH 7.5. Large-scale enzymatic synthesis of GDP-GlcN (IV) was accomplished using a 12 ml reaction containing 50 mM Tris pH 7.5, 1 mM GTP, 1 mM MgCl2, 0.8 U ml^−1 pyrophosphatase, 1.2 mM GlcN-1-P (III) and approximately 4.8 mg of His6PtmE. The large-scale enzymatic synthesis of GDP-GlcNAc was performed similar to that above, except the scale was increased five-fold and GlcNAc-1-P was used in place of GlcN-1-P (III). Assessment of His6PtmE substrate specificity was accomplished using 9 reactions, 80 μl each, containing 50 mM Tris pH 7.5, 2 mM MgCl2, 50 μg His6PtmE, and various combinations of 10 mM sugar-1-P (GalN-1-P, GlcN-1-P or GlcNAc-1-P) and 0.2 mM NTP (CTP, GTP, or TTP). Conversion of GDP-GlcN to GDP-GlcNAc. The His6GlmU reaction was performed using 1 mM GDP-GlcN (IV), 1.2 mM acetyl-CoA and His6GlmU in 25 mM sodium phosphate pH 7.8, 25 mM NaCl, 10 mM β-mercaptoethanol. In addition, a control reaction was performed containing 1 mM GlcN-1-P (III) instead of IV. Biosynthesis of legionaminic acid from GDP-GlcNAc. The stepwise enzymatic synthesis of intermediates or products was accomplished in 2 stages (V→VI→VII→VIII, and then VIII→IX→X) using 1 mM of V, 0.5 mM NAD, 0.8 mM PLP, 8 mM L-Glu, 1.2 mM acetyl-CoA, 1.2 mM PEP, LegBHis6, His6LegC, His6LegH, His6LegG, and His6LegI as appropriate, in 25 mM sodium phosphate pH 7.3, 25 mM NaCl. Assessment of His6LegG activity involved monitoring the reaction kinetics by ^1H NMR (see NMR spectroscopy) for 75 min using 0.75 mM GDP-2,4-diacetamido-2,4,6-trideoxy-α-D-Glc (VIII), 4 μg His6LegG in 200 μl of 25 mM sodium phosphate pH 7.3, 25 mM NaCl at 25° C. In addition, the substrate flexibility of His6LegG was assessed using a 300 μl reaction containing 40 μg His6LegG, 25 mM sodium phosphate pH 7.3, 25 mM NaCl, and 0.75 mM UDP-2,4-diacetamido-2,4,6-trideoxy-α-D-Glc, with incubation at 37° C. for 1.5 h, and then overnight at 25° C. Biosynthesis of CMP-legionaminic acid. The CMP-activation of legionaminic acid (X→XI) was performed using a 20 ml reaction containing approximately 0.2 mM of X, 50 mM MgCl2, 3 mM CTP, and 15 mg of LegFHis6 in 25 mM sodium phosphate pH 7.8, 25 mM NaCl, with incubation at 37° C. for 5 h, and then 25° C. for 72 h. Metabolite purification. Typically, reactions were passed through an Amicon Ultra-15 (10,000 molecular weight cut-off) or Ultra-4 (5,000 molecular weight cut-off) filter membrane before analysis. As required, NDP-sugar preparations (GDP-Glc, GDP-GlcN, GDP-GlcNAc, CDP-GlcNAc, TDP-GlcNAc, and CMP-Leg) were lyophilized and desalted/purified using a Superdex Peptide 10/300 GL (Amersham Biosciences) column in 25 mM ammonium bicarbonate, pH 7.9. For further purity, the NDP-sugar samples above were subjected to anion-exchange chromatography (Mono Q 4.6/100 PE, Amersham Biosciences) using ammonium bicarbonate pH 7.9. Quantification of NDP-sugar preparations was determined using the molar extinction coefficients of CMP (ε260=7,400), GDP (ε260=11,500), TDP (ε260=8,700), and UDP (ε260=10,000).
as §1

Experiment [3] addresses T1, His6LegG (Cj1328, NDP-sugar hydrolase/2-epimerase) (Campylobacter jejuni subsp. jejuni serotype O:2, UniProt Q0P8T0).
T1 construct: made in house; host or cells: E. coli BL21[DE3]
Put plainly: His6LegG activity and substrate flexibility (1H NMR, CE). The method, then:
as §2, with “The CMP-activation of legionaminic acid (X→XI) was performed using a 20 ml reaction containing approximately 0.2 mM of X, 50 mM MgCl2, 3 mM CTP, and 15 mg of LegFHis6 in 25 mM sodium phosphate pH 7.8, 25 mM NaCl, with incubation at 37° C. for 5 h, and then 25° C. for 72 h. Metabolite purification. Typically, reactions were passed through an Amicon Ultra-15 (10,000 molecular weight cut-off) or Ultra-4 (5,000 molecular weight cut-off) filter membrane before analysis. As required, NDP-sugar preparations (GDP-Glc, GDP-GlcN, GDP-GlcNAc, CDP-GlcNAc, TDP-GlcNAc, and CMP-Leg) were lyophilized and desalted/purified using a Superdex Peptide 10/300 GL (Amersham Biosciences) column in 25 mM ammonium bicarbonate, pH 7.9. For further purity, the NDP-sugar samples above were subjected to anion-exchange chromatography (Mono Q 4.6/100 PE, Amersham Biosciences) using ammonium bicarbonate pH 7.9.” left out, “(ε260=10,000). […]” for “(ε260=10,000).”

This is an account of results in US9157105B2, “Biosynthesis of CMP-legionaminic acid from fructose-6-P, and respective pathway intermediates, using novel GDP-linked precursors” (priority 2008, dated 2015).

T1 sequence (Q0P8T0 whole entry): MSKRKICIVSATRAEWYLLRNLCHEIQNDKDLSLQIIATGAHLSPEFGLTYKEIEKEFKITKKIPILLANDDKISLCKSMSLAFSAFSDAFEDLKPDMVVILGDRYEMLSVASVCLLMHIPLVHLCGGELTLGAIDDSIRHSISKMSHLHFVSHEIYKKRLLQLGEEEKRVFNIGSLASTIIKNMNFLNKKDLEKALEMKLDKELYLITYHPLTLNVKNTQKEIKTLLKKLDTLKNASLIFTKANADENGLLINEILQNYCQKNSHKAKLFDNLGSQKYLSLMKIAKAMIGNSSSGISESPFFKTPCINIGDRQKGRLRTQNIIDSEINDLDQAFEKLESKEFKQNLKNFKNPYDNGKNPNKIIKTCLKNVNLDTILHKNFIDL

Consider `N[C@H]1[C@@H](OP(=O)(O)O)O[C@H](CO)[C@@H](O)[C@@H]1O` [III, α-D-glucosamine-1-phosphate], for which, in experiment [1], the “PtmE activity with sugar-1-P acceptor” value was “activity was observed” and the “PtmE NTP donor specificity with this sugar acceptor” value was “absolutely specific for GTP”.

As for `CC(=O)N[C@H]1[C@@H](OP(=O)(O)OP(=O)(O)OC[C@H]2O[C@@H](n3ccc(=O)[nH]c3=O)[C@H](O)[C@@H]2O)O[C@H](CO)[C@@H](O)[C@@H]1O` [UDP-GlcNAc, UDP-N-acetyl-α-D-glucosamine], the “LegB reaction product formation” value in experiment [2] was “did not yield discernable product”.

With `O=P(O)(O)O[C@H]1O[C@H](CO)[C@@H](O)[C@H](O)[C@H]1O` [Glc-1-P, glucose-1-phosphate], the “PtmE activity with sugar-1-P acceptor” value in experiment [1] is reported as “activity was observed”.

With `CC(=O)N[C@H]1[C@@H](OP(=O)(O)OP(=O)(O)OC[C@H]2O[C@@H](n3ccc(=O)[nH]c3=O)[C@H](O)[C@@H]2O)O[C@H](C)[C@@H](NC(C)=O)[C@@H]1O` [UDP-2,4-diacetamido-2,4,6-trideoxy-α-D-glucose, reference compound], the “NDP removal by LegG” value in experiment [3] (quantity of LegG increased 10-fold, 90 min 37° C. then 16 h 25° C., CE) is “UDP removal was observed”. Also, the “formation of IX by LegG” value in experiment [3] (similar conditions (4 μg LegG)) was “IX was not observed”.

In the case of `CC(=O)NC1C(OP(=O)(O)OP(=O)(O)OCC2OC(n3ccc(N)nc3=O)C(O)C2O)OC(CO)C(O)C1O` (stereo not shown) [CDP-GlcNAc, CDP-N-acetyl-glucosamine], the “LegB reaction product formation” value in experiment [2] was “did not yield discernable product”.

Turning to `N[C@H]1C(OP(=O)(O)O)O[C@H](CO)[C@H](O)[C@@H]1O` (stereo partly shown) [GalN-1-P], the “PtmE activity with sugar-1-P acceptor” value in experiment [1] was “no activity was observed”.

`CC(=O)N[C@H]1[C@@H](OP(=O)(O)OP(=O)(O)OC[C@H]2O[C@@H](n3cnc4c(=O)[nH]c(N)nc43)[C@H](O)[C@@H]2O)O[C@H](C)[C@@H](NC(C)=O)[C@@H]1O` [VIII, GDP-2,4-diacetamido-2,4,6-trideoxy-α-D-glucose]: the “time to near completion of formation of IX by LegG” value in experiment [3] (4 μg LegG, 0.75 mM substrate, 25° C., in-tube 1H NMR) is recorded as ≤ 75 min.

With `Cc1cn([C@H]2C[C@H](O)[C@@H](COP(=O)(O)OP(=O)(O)O[C@H]3O[C@H](CO)[C@@H](O)[C@H](O)[C@H]3O)O2)c(=O)[nH]c1=O` [TDP-Glc], the “LegB reaction product formation” value in experiment [2] is on record as “did not yield discernable product”.

Take `CC(=O)NC1C(OP(=O)(O)OP(=O)(O)OCC2OC(n3cc(C)c(=O)[nH]c3=O)CC2O)OC(CO)C(O)C1O` (stereo not shown) [TDP-GlcNAc, TDP-N-acetyl-glucosamine]: the “LegB reaction product formation” value in experiment [2] is on record as “did not yield discernable product”.

For `CC(=O)N[C@H]1[C@@H](OP(=O)(O)O)O[C@H](CO)[C@@H](O)[C@@H]1O` [GlcNAc-1-P, N-acetyl-α-D-glucosamine-1-phosphate], in experiment [1], the “PtmE activity with sugar-1-P acceptor” value was “activity was observed” and the “PtmE NTP donor specificity with this sugar acceptor” value is “exhibited promiscuity with respect to activator NTP donors”.
